How the values were obtained:
[1] = Acute toxicity, oral administration (mice); assay type: in vivo, ddY-strain male mice; conditions: mortality up to 1 week; for LD50 at 168 h: mouse, in vivo
Excerpt: Each of the test drugs was suspended in a 0.5% sodium carboxymethylcellulose solution containing 0.1% Tween 80 and orally administered to each of ddY-strain male mice (body weight 24 to 31 g, n=5), and a mortality up to 1 week after administration was observed. Toxicity of test compounds (Compounds A and B) was extremely low. The LD50 value was 6 g/kg or more in both cases.

[2] = Acute toxicity, intraperitoneal administration (mice); assay type: in vivo, ddY-strain male mice; conditions: for mortality: up to 1 week, n=5
Excerpt: (2) Intraperitoneal administration
Each of the test drugs was suspended in a sterilized physiological saline and intraperitoneally administered to ddY-strain male mice (body weight 24 to 29 g, n=5), and a mortality up to 1 week after administration was observed.

[3] = cited from earlier work
[4] = Blood levels of L-dopa after intravenous administration of drugs (rats); assay type: in vivo, SD-strain male rats
Procedure: FIG. 7 illustrates change with time of a blood level of L-dopa in intravenously administering Compound A (o) and L-dopa (.cndot.) to rats.
Measuring blood levels of L-dopa after intravenous administration of drugs (rats)
Seven to eight week-old SD-strain male rats (n=3) were previously fasted for 18 hours. Twenty milligrams of L-dopa as a control drug or the equimolar amount of Compound A was dissolved in a concentration of 10 mg/ml in a physiolosical saline containing 50% propylene glycol, and the resulting solution was intravenously administered to the rats at a dose of 10 mg eq./kg, calculated as L-dopa. Immediately after administration, or 5, 15, 30, 45, 60, 90, 120, 150, 180 or 240 minutes after administration, 120 μl of blood was collected through a carotid cannula intubated in advance three days before the test using a heparin-treated glass capillary. The blood was treated as in Test Example 1 and then measured for blood levels of L-dopa.

[5] = Concentrations of L-dopa in the lumen and tissue of the small intestine by an in situ ligating loop method (rats); assay type: in vivo, male rats; conditions: jejunal loop, with 0.4 mg carbidopa
Excerpt: FIG. 8 illustrates change with time of amounts of Compound A (Δ) and L-dopa (o) after injection of Compound A, and amount of L-dopa (.cndot.) after injection of L-dopa in the lumen of the small intestine of rats according to an in situ ligating loop method.
FIG. 9 illustrates change with time of amounts of Compound A (Δ) and L-dopa (o) after injection of Compound A, and amount of L-dopa (.cndot.) after injection of L-dopa in the tissue of the small intestine of rats according to an in situ ligating loop method.
Measuring concentrations of L-dopa in the lumen and tissue of the small intestine by an in situ ligating loop method (rats)
Eight week-old male rats (n=3) were fasted overnight before the test, and then under ether anesthesia, were incised at the abdomen. An acute loop of 8 cm length was ligated in the jejunum. Compound A (1.47 mg) or 1.00 mg of L-dopa as a control drug was suspended in 0.5 ml of 0.5% sodium carboxymethylcellulose together with 0.4 mg of carbidopa, and the suspension was injected into the loop. The loop was returned in the abdominal cabity and the cut portion was then sewn. After a fixed time, the loop was taken out again and the content in the loop was well washed with a ice-cooled physiological saline. […] In the resulting solutions, the concentration of L-dopa was determined as in Test Example 1 and the concentration of Compound A as follows, respectively. […]

[6] = concluded from conversion to L-dopa

| SMILES | LD50 at 168 h [1] [mg/kg] | mortality ([2]; 1250 mg/kg) | mortality ([2]; 1800 mg/kg) | blood level of L-dopa ([3]; human, in vivo) | appearance of dyskinesias after administration of L-dopa ([3]; patients, chronic L-dopa therapy) [h] | elimination of L-dopa from blood ([3]; patients) | toxicity [1] | hydrolysis to L-dopa in the systemic circulation ([4]; 10 mg eq./kg as L-dopa) | conversion ratio to L-dopa ([4]; 10 mg eq./kg as L-dopa, estimated) | bioavailability [4, 6] | toxicity [4, 6] | amount of L-dopa in the lumen (washing liquid) and tissue (homogenate) of the small intestine ([5]; 1.47 mg Compound A vs 1.00 mg L-dopa) | concentration of L-dopa in the lumen and tissue of the small intestine [5] | toxicity ([2]; mortality up to 1 week) |
| --- | --- | --- | --- | --- | --- | --- | --- | --- | --- | --- | --- | --- | --- | --- |
| N[C@@H](Cc1ccc(O)c(O)c1)C(=O)O [L-dopa] | 3200 | two of five mice were dead | all the test mice were dead | rapidly increases and falls | 1 to 2 | rapid elimination |  |  |  |  |  |  |  |  |
| CC1(C(=O)Oc2ccc(C[C@H](N)C(=O)O)cc2O)CC1 [Compound B, 4-O-(1-methylcyclopropanecarbonyl)-L-dopa] | ≥ 6000 |  |  |  |  |  | extremely low |  |  |  |  |  |  |  |
| CC(C)(C)C(=O)Oc1ccc(C[C@H](N)C(=O)O)cc1O [Compound A, 4-O-pivaloyl-L-dopa] | ≥ 6000 |  | no case of death was observed |  |  |  | extremely low | rapidly and completely hydrolyzed to L-dopa | about 100% | high bioavailability | low toxicity | retained for a longer time with less fluctuation than that after administration of L-dopa | kept low | very low |
